Molecules are shown by their SMILES. ≈ marks a conversion by molar mass, not a printed value. Where “and” joins values, the source holds several entries; their conditions need not be identical. Identical values can stand only once. Like-named read-outs stand apart in the source and are kept apart here.

The results in this text go back to US20230391826A1, “COMPOSITIONS AND METHODS FOR TREATING DISEASES” (Sanford Burnham Prebys Medical Discovery Institute, priority 2020, published 2023).

In one data set the target is T1, EphA2 LBD (Homo sapiens, UniProt P29317).
T1 construct: made in house; host or cells: E. coli Origami 2(DE3)
As to the kind of experiment: Isothermal titration calorimetry (ITC) with soluble EphA2 LBD. Format: binding. The method, then:
(FIG. 10A-10E) The EphA2 LBD was titrated at 200-250 μM into 10-12.5 μM of the indicated peptide.
For ITC, all peptides are dissolved in DMSO and both the EphA2 LBD and the peptides are diluted to obtain a final buffer containing 9.5 mM HEPES, pH 7.9, 95 mM NaCl, and 5% DMSO. The experiments are carried out at 296 K (23° C.) using an ITC200 calorimeter (Microcal). Two-microliter aliquots of a peptide solution are injected into the cell containing 205 μL EphA2 LBD. 200-400 μM peptides are titrated into 20-40 μM EphA2 LBD. Experimental data are analyzed using the Origin software package (Microcal). The integrated values for the reaction heats are normalized to the amount of injected peptide after blank subtraction.

Another data set deals with other Eph receptors. Briefly: ELISA selectivity: ephrinA5-AP binding to EphA receptors and ephrinB2-AP binding to EphB receptors. As to conditions: peptide at ~100-fold its IC50. An excerpt:
(§1) FIG. 1A-1C illustrates an example of Potency and selectivity of EphA2-targeting dimeric peptides. (FIG. 1A) ELISAs comparing the ability of the peptides to inhibit binding of ephrin-A5 fused to alkaline phosphatase (ephrinA5-AP) to the immobilized EphA2 extracellular domain fused to the Fc portion of an antibody (EphA2-Fc). The graphs show averages ±SD from triplicate measurements from a representative experiment. IC50 values calculated from the fitted curves in each experiment are shown. Averages of IC50 values obtained from multiple experiments are shown in panel FIG. 1B and Table 3. The 10 nM peptide concentration is outlined in red. (FIG. 1B) Plot of the average IC50 values (listed in Table 3) for different ligands. […] (FIG. 1C) EphrinA5-AP binding to EphA receptors and ephrinB2-AP binding to EphB receptors in the presence of dimeric peptides representing each of the three configurations. Values are normalized to ephrin binding without peptide. The graphs show averages and SDs from triplicate measurements (with each measurement shown as a dot).
An important feature of the original YSA peptide and its monomeric derivatives is that they specifically bind to EphA2, whereas the ephrinA ligands promiscuously binds to all EphA receptors (9, 31, 37, 53). […]

Data set [1] has as its target T2, EphA2 extracellular domain fused to Fc (EphA2-Fc) (Homo sapiens, UniProt P29317).
T2 construct: immobilized EphA2 extracellular domain fused to the Fc portion of an antibody (EphA2-Fc)
As to the kind of experiment: ELISA: inhibition of ephrinA5-AP binding to immobilized EphA2-Fc. As to conditions: Table 3; inhibition of EphA2-ephrinA5 interaction; averages ± SD; read-out: ICsa (nM) by ELISA.
From the text: as §1

Data set [2] addresses T3, EphA2 (Homo sapiens, UniProt P29317, G131Y).
T3 construct: expressed in transfected cells; host or cells: HEK293 (HEK293T), transient transfection
As to the kind of experiment: Quantitative FRET of EphA2 oligomerization in transiently transfected HEK293 cells. Format: cell-based. An excerpt: (§2) FIG. 4A-4E illustrates an example where dimers with different configurations induce EphA2 oligomerization and patching on the cell surface. (FIG. 4A-4D) Oligomerization curves comparing EphA2 WT and the G131Y and L223R/L254R/[…] interface mutants transiently expressed in HEK293 cells and treated with saturating concentrations of C-terminally linked dimer (2) or N-terminally linked dimer (5). The curves were obtained by fitting quantitative FRET data to monomer-oligomer models. […] Curves for higher order oligomerization are steeper than dimerization curves. (FIG. 4E) Two-photon integrated fluorescence images of HEK293 cells expressing EphA2-EYFP and EphA2-mTURQ and under hypo-osmotic conditions. The plasma membrane regions in the rectangular yellow outlines are enlarged in the insets at the bottom of each panel. The dimeric peptides induce patching of EphA2 WT on the plasma membrane and dimer (5) also induces patching of the EphA2 L223R/L254R/V255R mutant, while in the other cases the EphA2 interface mutations disrupt patching. The scale bar represents 10 μm for the main panels and 4 μm for the insets. # indicates the presence of EphA2 patches in the plasma membrane.
(§3) FIG. 12 illustrates an example of FRET efficiencies versus total receptor concentrations. […]
(§4) To examine the effects of dimeric peptide ligands on EphA2 oligomerization (including dimerization and higher order clustering), quantitative FRET experiments were performed in live cells. […] FRET is then measured in hundreds of individual cells with different EphA2 expression levels (FIG. 12), and the data are combined to yield average oligomeric fractions at different EphA2 concentrations (FIG. 4A-4D). […]
(§5) To obtain the data points for oligomerization curves (FIG. 12), the concentration of EphA2 in each small region of plasma membrane in which FRET efficiency was measured. Conversion of fluorescence intensity into accurate 2-dimensional EphA2 concentration requires a reversible hypo-osmotic treatment to swell the cells and smooth the wrinkled topology of their plasma membrane (FIG. 4E). […]

Data set [3] deals with T4, EphA2 (Homo sapiens, UniProt P29317, L223R/L254R/V255R).
T4 construct: expressed in transfected cells; host or cells: HEK293 (HEK293T), transient transfection
Described as above. In kind it is cell-based. As to conditions: swollen HEK293 cells.
From the text: as §2, §3, §4, §5

Data set [4] can be described thus: Peptide solubility in PBS/H2O/DMSO. Format: physicochemical. The protocol: Peptide identity and purity are documented by mass spectrometry and high-performance liquid chromatography (HPLC). The peptide solubility values are determined. Concentrated peptide stocks are prepared in DMSO or H2O and stored frozen at −80° C.

T1 sequence (P29317 28-200): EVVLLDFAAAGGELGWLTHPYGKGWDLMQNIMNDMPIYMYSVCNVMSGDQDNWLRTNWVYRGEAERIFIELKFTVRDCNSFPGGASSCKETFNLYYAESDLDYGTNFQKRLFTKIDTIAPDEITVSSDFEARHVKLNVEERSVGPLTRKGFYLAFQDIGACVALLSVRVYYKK
T3 sequence (P29317 24-976 G131Y): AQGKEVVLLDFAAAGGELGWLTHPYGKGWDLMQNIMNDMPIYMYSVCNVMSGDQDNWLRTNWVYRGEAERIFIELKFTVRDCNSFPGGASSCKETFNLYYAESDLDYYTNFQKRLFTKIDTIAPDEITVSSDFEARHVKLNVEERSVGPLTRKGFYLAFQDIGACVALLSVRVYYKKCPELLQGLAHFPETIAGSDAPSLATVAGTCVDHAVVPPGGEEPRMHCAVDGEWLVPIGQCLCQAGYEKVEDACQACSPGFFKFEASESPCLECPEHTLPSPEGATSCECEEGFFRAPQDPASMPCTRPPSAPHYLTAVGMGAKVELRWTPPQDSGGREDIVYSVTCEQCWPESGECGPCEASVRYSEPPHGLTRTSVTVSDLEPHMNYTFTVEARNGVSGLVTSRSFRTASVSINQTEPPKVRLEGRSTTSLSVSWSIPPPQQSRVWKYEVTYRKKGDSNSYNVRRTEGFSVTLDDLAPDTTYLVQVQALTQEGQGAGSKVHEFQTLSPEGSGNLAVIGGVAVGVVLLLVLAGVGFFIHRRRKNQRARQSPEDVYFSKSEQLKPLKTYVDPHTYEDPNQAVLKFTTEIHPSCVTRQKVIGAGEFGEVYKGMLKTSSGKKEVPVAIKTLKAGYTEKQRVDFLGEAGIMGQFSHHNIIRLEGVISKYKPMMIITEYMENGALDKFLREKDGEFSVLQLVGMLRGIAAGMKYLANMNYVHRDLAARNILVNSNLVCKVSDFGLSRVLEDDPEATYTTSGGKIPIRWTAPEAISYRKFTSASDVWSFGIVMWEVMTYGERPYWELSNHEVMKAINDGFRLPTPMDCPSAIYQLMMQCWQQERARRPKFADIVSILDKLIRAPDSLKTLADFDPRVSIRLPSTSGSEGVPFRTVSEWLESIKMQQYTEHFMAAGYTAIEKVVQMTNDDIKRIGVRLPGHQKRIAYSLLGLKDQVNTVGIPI
T2 sequence (P29317 24-537 limits assumed): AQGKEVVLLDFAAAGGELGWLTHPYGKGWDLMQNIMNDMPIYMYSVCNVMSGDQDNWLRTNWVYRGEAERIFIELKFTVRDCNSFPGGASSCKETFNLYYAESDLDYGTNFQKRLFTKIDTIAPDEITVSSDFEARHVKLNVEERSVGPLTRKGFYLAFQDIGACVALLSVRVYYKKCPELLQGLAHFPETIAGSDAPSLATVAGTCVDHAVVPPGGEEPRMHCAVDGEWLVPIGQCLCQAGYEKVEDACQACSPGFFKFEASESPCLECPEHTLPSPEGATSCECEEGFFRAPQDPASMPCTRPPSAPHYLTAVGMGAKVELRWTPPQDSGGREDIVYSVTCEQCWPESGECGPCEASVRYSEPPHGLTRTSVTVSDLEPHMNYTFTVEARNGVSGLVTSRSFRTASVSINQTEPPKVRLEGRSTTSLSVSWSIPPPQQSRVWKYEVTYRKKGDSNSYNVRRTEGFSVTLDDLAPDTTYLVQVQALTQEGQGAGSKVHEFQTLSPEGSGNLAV
T4 sequence (P29317 24-976 L223R/L254R/V255R): as the sequence (P29317 24-976 G131Y) above, with Y108G, L200R, L231R, V232R counted along it

Regarding `CC(C)C[C@H](NC(=O)[C@H](Cc1c[nH]c2ccccc12)NC(=O)[C@H](C)NC(=O)CNC(=O)[C@@H](N)CSSC[C@H](N)C(=O)NCC(=O)N[C@@H](C)C(=O)N[C@@H](Cc1c[nH]c2ccccc12)C(=O)N[C@@H](CC(C)C)C(=O)N[C@@H](C)C(=O)N[C@@H](Cc1ccc(O)cc1)C(=O)N1CCC[C@H]1C(=O)N[C@@H](CC(=O)O)C(=O)N[C@@H](CO)C(=O)N[C@H](C(=O)N1CCC[C@H]1C(=O)N[C@@H](Cc1ccc(O)cc1)C(=O)N[C@@H](CCCNC(=N)N)C(=O)N1CCC[C@H]1C(=O)N[C@@H](CCCCN)C(=O)O)C(C)C)C(=O)N[C@@H](C)C(=O)N[C@@H](Cc1ccc(O)cc1)C(=O)N1CCC[C@H]1C(=O)N[C@@H](CC(=O)O)C(=O)N[C@@H](CO)C(=O)N[C@H](C(=O)N1CCC[C@H]1C(=O)N[C@@H](Cc1ccc(O)cc1)C(=O)N[C@@H](CCCNC(=N)N)C(=O)N1CCC[C@H]1C(=O)N[C@@H](CCCCN)C(=O)O)C(C)C` [compound 5, CGA-WLA-YRPK dimer (N-ter)], the Kd was determined as 380 ± 80 nM on EphA2 LBD and 21 ± 3 nM on EphA2 LBD (Table 3, soluble EphA2 LBD). At EphA2 LBD (Table 3), the “N (binding stoichiometry by ITC)” value is “N = 2.2 ± 0.2”. Moreover, the “-TΔS” value on EphA2 LBD (Table 6) amounted to 21.93 ± 0.31 kcal/mol. Further, the N at EphA2 LBD (Table 6, binding stoichiometry) was 2.2 ± 0.2. In addition, the “ΔG” value at EphA2 LBD (Table 6, change in Gibbs energy) was -10.41 ± 0.10 kcal/mol. The “ΔH” value on EphA2 LBD (Table 6, change in enthalpy) was -32.34 ± 0.21 kcal/mol. Also, the “selectivity for EphA2 / binding to other Eph receptors” value in the data set on other Eph receptors is given as “do not bind to other Eph receptors”. Also, the IC50 in data set [1] is 0.65 nM and 0.66 nM. Besides, the “best-fit FRET oligomerization model, EphA2 G131Y mutant” value on EphA2 [2] (saturating peptide, HEK293 cells) is reported as “dimer model”. Also, the “EphA2 patches on the plasma membrane, EphA2 G131Y mutant” value on EphA2 [2] (swollen HEK293 cells) is recorded as “not”. At EphA2 [3], the “EphA2 patches on the plasma membrane, EphA2 L223R/L254R/V255R mutant” value is on record as “causes patches”. Further, the solubility in data set [4] (DMSO, third of PBS/H2O/DMSO, read-out: Solubility in DMSO) turned out to be 15000 µg/mL (≈ 4120 µM); in data set [4] (PBS, Table 4, first of PBS/H20/DMSO, read-out: Solubility in PBS), 5000 µg/mL (≈ 1370 µM); in data set [4] (PBS, first of PBS/H2O/DMSO, read-out: Solubility in PBS) it was 5000 µg/mL (≈ 1370 µM); in data set [4] (water, Table 4, second of PBS/H20/DMSO, read-out: Solubility in H20), 5000 µg/mL (≈ 1370 µM); in data set [4] (water, second of PBS/H2O/DMSO, read-out: Solubility in H2O) it was 5000 µg/mL (≈ 1370 µM).
